# Tested on: Huh7 psiCHECK-miR122 Renilla luciferase reporter, 48 h
# Experiment: suppression of miR-122 activity, Renilla luciferase sensor – cell-based, Huh7 psiCHECK-miR122, cherry-pick, dose response (AID 652053)
row,SMILES,AC40 [µM]
1,Cc1ccc(Cn2c(NS(=O)(=O)c3ccccc3)nc3ccccc32)cc1,2
2,Cc1cc(S(=O)(=O)NCC2CC2)c(Cl)cc1Cl,2.7
3,CC(=O)N1CCc2cc(Br)cc(S(=O)(=O)NCc3ccc(Cl)cc3)c21,4.29
4,C[C@@H]1CN([C@@H](C)CO)S(=O)(=O)c2ccc(C#CCN(C)C)cc2O[C@@H]1CN(C)Cc1ccc2c(c1)OCO2,8.29
5,Cc1ccc(NC(=S)NCc2ccc(F)cc2)cc1,20.3
6,CC(c1ccco1)N(C(=O)CSc1ccc(Br)cc1)c1ccccn1 (stereo not given),14.4
7,COc1ccc(-c2ccc3c(c2)CN(C(=S)NCCc2ccccc2)Cc2cnnn2-3)cc1,2.2
8,C[C@@H]1CN([C@H](C)CO)C(=O)c2cccc(NC(=O)c3nc4ccccc4s3)c2O[C@@H]1CN(C)Cc1ccc(C(=O)Nc2ccccc2N)cc1,17.7
9,COc1ccc(NS(=O)(=O)c2cc(NC(=O)c3ccc(=O)[nH]c3)ccc2C)cc1,2.64
10,N#CC1c2ccccc2-c2ccccc2N1C(=O)c1ccccc1 (stereo not given),8.39
11,Cc1ccc(NC(=O)Cc2cn(C)c3ccccc23)cc1F,7.09
12,CCOc1cc(C)c(Cl)cc1S(=O)(=O)NCC1CCCO1 (stereo not given),1.2
13,C[C@H](CO)N1C[C@H](C)[C@@H](CN(C)Cc2ccccc2)Oc2c(NS(=O)(=O)c3ccccc3)cccc2C1=O,3.64
14,CCCCNS(=O)(=O)c1ccc(OC)c(Cl)c1Cl,3.99
15,C[C@@H]1CN([C@@H](C)CO)C(=O)c2cccc(NS(=O)(=O)c3ccc(F)cc3)c2O[C@@H]1CN(C)Cc1ccc(C(=O)Nc2ccccc2N)cc1,10.4
16,COc1ccc(NS(=O)(=O)c2cc(NS(=O)(=O)c3cccs3)ccc2C)cc1,4.04
17,CCc1ccc(S(=O)(=O)Nc2ccc(Cl)cn2)cc1,8.84
18,O=C(Nc1ccc(S(=O)(=O)Nc2nccs2)cc1)c1cc(-c2ccccc2Cl)nc2ccccc12,2.48
19,COc1ccc2nc(Nc3nc(CSc4nc5ccccc5[nH]4)cc(=O)[nH]3)nc(C)c2c1,9.96
20,Cc1cccc(-c2nn(-c3ccccc3)cc2C(=O)Nc2cccc(S(=O)(=O)NC3=NCCC3)c2)c1,18.3
21,CCOc1ccc(NS(=O)(=O)c2ccc(NC(=S)NC(=O)C(C)C)cc2)cc1,5.48
22,CCOc1cc(C)c(S(=O)(=O)Nc2ccc(F)cc2)cc1C,0.908
23,Fc1ccccc1Cn1cc(C(=S)N2CCOCC2)c2ccccc21,12.4
24,CCN(CC)c1ccc(N)cc1S(=O)(=O)Nc1ccc(OC)cc1,27.3
25,COc1ccc(S(=O)(=O)NCCN2CCOCC2)c2ccccc12,0.789

row,SMILES,AC40 [µM]
1,Cc1nc2ccc(S(=O)(=O)Nc3ccccc3C)cc2s1,22.2
2,Cc1ccc(S(=O)(=O)N/N=C/c2ccc(OCC(=O)Nc3ccccc3Cl)cc2)cc1,5.89
3,CCn1nccc1C(=O)Nc1ccc(S(=O)(=O)NC23CC4CC(CC(C4)C2)C3)cc1,2.24
4,C[C@H](CO)N1C[C@H](C)[C@@H](CN(C)Cc2ccc(C(F)(F)F)cc2)Oc2c(NC(=O)C3CC3)cccc2C1=O,0.387
5,COc1ccc(CNS(=O)(=O)c2cc(-c3cc(C)no3)ccc2C(C)C)cc1,3.69
6,C[C@@H]1CN([C@H](C)CO)C(=O)c2cccc(NC(=O)Nc3ccccc3)c2O[C@@H]1CN(C)Cc1ccc(C(=O)Nc2ccccc2N)cc1,20.5
7,CCc1c(C(=O)NCc2ccccc2Cl)[nH]c(C)c1C(C)=O,1.38
8,CCN1C(=O)c2cccc3c(S(=O)(=O)NCCc4c[nH]c5ccccc45)ccc1c23,3.09
9,CCOc1ccccc1N1CCN(C(=O)c2cccc(-c3ccc(O)cc3)c2)CC1,0.659
10,Cc1ccc(S(=O)(=O)NC2CCCCCC2)cc1,2.92
11,Cc1ccccc1-c1cnc(C(O)c2ccc(F)c(F)c2)[nH]1 (stereo not given),6.78
12,CC(NC(=O)CNC(=S)N(Cc1cccs1)C1CCCC1)c1ccccc1 (stereo not given),1.47
13,Cc1cc(Cl)c(S(=O)(=O)Nc2ccc3c(c2)OCO3)cc1OCC(=O)NC1CCCCC1,5.8
14,Cc1nc2cc(NS(=O)(=O)c3c(C)c(C)cc(C)c3C)ccc2s1,< 0.26
15,CC(C)c1ccc(S(=O)(=O)Nc2ccc3c(c2)OCO3)cc1,2.71
16,O=S(=O)(Nc1ccc(Cl)cc1)c1cccc2nsnc12,14.8
17,COc1ccc(NS(=O)(=O)c2cc3c(cc2C)N(C)CCO3)cc1,2.04
18,COc1cc(C(CCN2CCOCC2)c2c(OC)cc(OC)c3c(-c4ccccc4)cc(=O)oc23)cc(OC)c1OC (stereo not given),1.2
19,COc1ccc(CN(C(=O)c2ccc(-c3ccccc3)[nH]2)C(C(=O)NCC2CCCO2)c2ccc(C)o2)cc1 (stereo not given),5.58
20,CC(=O)c1c(C)[nH]c(C(=O)Nc2ccc(C)c(S(=O)(=O)Nc3ccc(C)cc3C)c2)c1C,8.45
21,COc1ccccc1CNS(=O)(=O)c1cc(-c2cc(C)no2)ccc1C(C)C,4.78
22,CC(C)CNS(=O)(=O)c1ccc(CCC(=O)NCCC2=CCCCC2)cc1,23
23,COc1ccc(OC)c(S(=O)(=O)Nc2ccc(C(C)=O)cc2)c1,1.58
24,CC(C)(C)NS(=O)(=O)c1ccc(OCC(=O)Nc2ccc3c(c2)OCCO3)cc1,14.7
25,COc1ccc(NS(=O)(=O)c2cc(NC(=O)Cc3c(F)cccc3Cl)ccc2OC)cc1,3.67

row,SMILES,AC40 [µM]
1,CCOc1cc(C)c(C(C)C)cc1S(=O)(=O)n1ccc(C)n1,7.45
2,Cc1ccc(S(=O)(=O)Nc2ccc3c(c2)CC(=O)N([C@H](C)CO)C[C@@H](C)[C@H](CN(C)Cc2ccc(C(=O)Nc4ccccc4N)cc2)O3)cc1,17.2
3,COc1ccc(S(=O)(=O)N(C)C[C@H]2Oc3ccc(NC(=O)Cc4ccccc4)cc3C(=O)N([C@H](C)CO)C[C@H]2C)cc1,2.75
4,O=C(OCCN=C1NS(=O)(=O)c2ccccc21)c1ccccc1,9.59
5,C[C@@H]1CN([C@@H](C)CO)C(=O)Cc2cc(NC(=O)Nc3ccc4c(c3)OCO4)ccc2O[C@@H]1CN(C)C(=O)Nc1cccc2ccccc12,10.9
6,COc1ccccc1C(=O)Nc1ccc2c(c1)C(=O)N(C)[C@H]1CC[C@@H](CC(=O)NCc3ccc(Cl)c(Cl)c3)O[C@H]1CO2,0.359
7,COc1ccc(S(=O)(=O)Nc2cc(C)ccc2OC)cc1C,3.63
8,CSc1ccc(S(=O)(=O)Nc2ccc(F)cc2)cc1,5.15
9,CCCn1c(NC(=O)c2cccc(C)c2C)nc2ccccc21,16.2
10,COc1ccc(S(=O)(=O)Nc2ccc(CC#N)cc2)cc1,11.9
11,O=S(=O)(c1ccccc1F)N1CC[C@@H]2[C@@H](CO)Nc3ccc(-c4ccc(F)cc4)cc3[C@@H]21,5.7
12,Cc1cc(C)c(S(=O)(=O)NC2CC3CCC2C3)c(C)c1 (stereo not given),0.6
13,CC(=O)N1CCOc2ccc(S(=O)(=O)NCCc3cccc(C)c3)cc21,4.01
14,CN1CC(c2ccc(C#N)cc2)C2(COc3ccccc3C2=O)C12C(=O)Nc1ccccc12 (stereo not given),3.69
15,COc1ccc(Br)cc1S(=O)(=O)N1CCN=C1c1ccccc1,9.26
16,Cc1ccc(S(=O)(=O)Nc2ccc3nc(N)sc3c2)cc1,2
17,CCCNC(=O)NC[C@@H]1[C@@H](c2ccc(C3=CCCC3)cc2)[C@@H](CO)N1C(=O)CC,16.9
18,CCN(CC)C(=O)CC(c1ccc(N(C)C)cc1)c1c(OC)cc(OC)c2c(-c3ccccc3)cc(=O)oc12 (stereo not given),3
19,COc1ccc(OC)c(S(=O)(=O)Nc2ccc3oc4c(c3c2)C(=O)CCC4)c1,17.7
20,CC(C)(C)C(=O)Nc1cc(S(=O)(=O)Nc2ccc(Cl)cc2)ccc1O,13.8
21,COc1ccc(S(=O)(=O)NCc2ccco2)c2ccccc12,2.62
22,CC(=O)c1ccc(NS(=O)(=O)c2ccc3c(c2)N(C)CCO3)cc1,3.6
23,COc1ccc(N(C(=O)c2ccco2)S(=O)(=O)c2cc(Cl)c(Cl)cc2Cl)cc1,12.4
24,Cc1cc(C)c(S(=O)(=O)Nc2cccc(S(=O)(=O)N3CCOCC3)c2)c(C)c1,2.71
25,C[C@H]1CN([C@@H](C)CO)C(=O)c2cccc(NS(=O)(=O)c3ccccc3)c2O[C@@H]1CN(C)Cc1ccc(C(=O)Nc2ccccc2N)cc1,22

row,SMILES,AC40 [µM]
1,Cc1ccccc1C(=O)Oc1ccc(Br)cc1C(=S)N1CCCC1,13.3
2,CCCn1c(N)c(C(=O)CSc2nnc(Cc3cccs3)n2C2CC2)c(=O)n(C)c1=O,7.17
3,Cc1ccc(NS(=O)(=O)c2cc(OCC(N)=O)c(C)cc2Cl)cc1C,7.14
4,Cc1cc(C)cc(Cn2c3ccc(NC(=S)NCc4ccccc4F)cc3c(=O)n2C)c1,4.19
5,Cc1ccccc1C(=O)Nc1ccc(Br)c(C)n1,3.17
6,CC(C)n1nc(C(=O)Nc2cccc(S(=O)(=O)NCc3ccco3)c2)c2ccccc2c1=O,2.61
7,c1ccc(CNc2nnnn2-c2ccccc2)cc1,17.1
8,CCN(CC)C(=O)CN(c1cc2c(cc1OC)oc1ccccc12)S(=O)(=O)c1ccccc1,1.69
9,CNC(=O)NC(=O)C(C)OC(=O)c1ccc(Cl)c(S(=O)(=O)Nc2ccc(F)cc2)c1 (stereo not given),7.64
10,O=C(Nc1nc2ccc(S(=O)(=O)N3CCCC3)cc2s1)C1CCCCC1,14.8
11,COc1cccc(CNS(=O)(=O)c2cc(-c3cc(C)no3)ccc2C(C)C)c1,5.07
12,CCOc1ccc(S(=O)(=O)/N=C(/Nc2ccc(C)c(S(=O)(=O)N3CCOCC3)c2)c2ccccc2)cc1,2.23
13,CCCCOC(=O)NC1CCc2cc(OC)c(OC)c(OC)c2-c2ccc(SC)c(=O)cc21 (stereo not given),0.863
14,Nc1c(S(=O)(=O)c2cccs2)c2nc3ccccc3nc2n1Cc1ccccc1,1.86
15,Cc1ccc(C(=O)Nc2ccccc2C(=O)O)cc1S(=O)(=O)Nc1ccccc1,2.74
16,O=S(=O)(NC1CC2CCC1C2)c1ccc2c(c1)OCCO2 (stereo not given),3.87
17,COc1cc(CN(C)C(=O)C(=O)c2c[nH]c3ccccc23)ccc1O,6.67
18,Cc1cccc(NS(=O)(=O)c2ccc(C)c(C(=O)OCC(=O)Nc3cc(C)on3)c2)c1,4.46
19,C=CCNC(=O)c1ccccc1NC(=O)c1ccc(Cl)c(S(=O)(=O)Nc2cccc(C)c2C)c1,0.734
20,COc1ccccc1NS(=O)(=O)c1cc(NC(=O)c2cccnc2)ccc1N1CCCCC1,< 0.26
21,COc1cc(NS(=O)(=O)c2cc3c(cc2C)NC(=O)CO3)cc(OC)c1,4.02
22,Cc1ccc(S(=O)(=O)NCCN2CCOCC2)c(C)c1C,6.26
23,Cc1cc(C(C)(C)C)cc(S(=O)(=O)Nc2ccc(C(=O)O)cc2)c1C,9.72
24,O=C(C1CCC1)N1CCc2cc(S(=O)(=O)NCc3ccco3)ccc21,12.3
25,COc1ccc(C2=Nn3c(nnc3-c3ccccc3OC)SC2)cc1OC1CCOC1 (stereo not given),8.29
